In patent US4209442A, “Angiotensin II analogs and process for the preparation thereof” (Richter Gedeon Vegyeszeti Gyar Rt., priority 1977, dated 1980):

Test system: hypertension induced by angiotensin II
Assay: Decrease in blood pressure after intravenous administration, under i.v. infusion of angiotensin II
Type: in vivo, tomcats
Conditions: single dose, angiotensin II infusion 0.5 μg/kg/min, average of 6 experiments
Description: The antagonistic activity of the compounds having the formula I was tested on tomcats. The blood pressure was measured on the cervical artery. The tests were performed by introducing a Hypertension (CIBA) infusion into a lateral femoral vane at a speed of 0.5 μg/kg/min. When the increase in blood pressure was stabilized, the aqueous, physiological or carrier-containing solutions of the test compounds and Saralasin were administered in a single dose, intravenously or subcutaneously, and the decrease in blood pressure was measured. In the Table 1 the decrease in the arterial blood pressure under the influence of an intravenous administration of the test compounds is illustrated. For comparision Saralasin is used. The data set forth in the Table 1 were obtained by calculating the average of the results of 6 experiments. The margins of error indicate the scatter of the main value.

Compound | Decrease in blood pressure (mmHg) after administration of 10 μg/kg i.v. doses | Decrease in blood pressure (mmHg) after administration of 20 /μg/kg i.v. doses (20 μg/kg i.v.)
CNCC(=O)N[C@@H](CCCN=C(N)N)C(=O)N[C@H](C(=O)N[C@@H](Cc1ccc(O)cc1)C(=O)N[C@H](C(=O)N[C@@H](Cc1cnc[nH]1)C(=O)N1CCC[C@H]1C(=O)N[C@@H](C)C(=O)O)C(C)C)C(C)C [Saralasin, reference compound] | -41 ± 2.5 mmHg | –
(Hydroxyacetyl^1,Thr(Me)^8)-angiotensin II [(Hydroxyacetyl^1,Thr(Me)^8)-AngII] | -33 ± 5.3 mmHg | -38 ± 4.1 mmHg
